Experimental data as given in patent publication US10508104B2, “6-hydroxy-5-(phenyl/heteroarylsulfonyl)pyrimidin-4(1H)-one as APJ agonists” (Bristol-Myers Squibb Company, priority 2016, dated 2019).

Molecular target: human APJ receptor (Homo sapiens (Human), UniProt P35414)
Test: Intracellular cAMP accumulation assay (APJ hcAMP, HTRF)
Format: cell-based
Details: human APJ, cAMP accumulation; read-out: Human APJ cAMP EC50 Potency range
How it was run: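 HEK293 cells stably expressing human APJ, 5,000 per well, incubated 30 min at rt with compound, […] and 2 μM forskolin. cAMP measured by HTRF against a cAMP standard curve as inhibition of forskolin-driven production. EC50 from variable-slope sigmoidal fit.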

human APJ receptor, sequence (P35414 whole entry): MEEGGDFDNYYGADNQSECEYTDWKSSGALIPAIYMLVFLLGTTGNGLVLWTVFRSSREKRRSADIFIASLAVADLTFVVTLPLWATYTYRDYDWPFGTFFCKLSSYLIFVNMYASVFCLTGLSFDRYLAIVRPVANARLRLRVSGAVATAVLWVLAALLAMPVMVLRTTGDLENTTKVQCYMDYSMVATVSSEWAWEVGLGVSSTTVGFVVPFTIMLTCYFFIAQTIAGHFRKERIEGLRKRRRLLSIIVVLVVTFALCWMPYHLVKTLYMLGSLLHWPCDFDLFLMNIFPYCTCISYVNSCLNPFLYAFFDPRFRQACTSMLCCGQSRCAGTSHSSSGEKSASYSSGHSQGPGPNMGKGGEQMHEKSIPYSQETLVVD

| Structure (SMILES) | EC50 [nM] |
| --- | --- |
| CCCCc1nc(=O)c(S(=O)(=O)c2ccc(-c3ccncc3C)cc2)c(O)n1[C@@H](CC)c1ccccc1 [Example 291, 2-butyl-6-hydroxy-5-[4-(3-methylpyridin-4-yl)benzenesulfonyl]-1-[(1S)-1-phenylpropyl]-1,4-dihydropyrimidin-4-one] | 0.01 to 10 |
| CCCCc1nc(=O)c(S(=O)(=O)c2ccc(-c3cnc(C)nc3)cc2)c(O)n1[C@@H](CC)c1ccccc1 [Example 292, 2-butyl-6-hydroxy-5-[4-(2-methylpyrimidin-5-yl)benzenesulfonyl]-1-[(1S)-1-phenylpropyl]-1,4-dihydropyrimidin-4-one] | 10 to 100 |
| CCCCc1nc(=O)c(S(=O)(=O)c2ccc(-c3cncc(C)c3)cc2)c(O)n1[C@@H](CC)c1ccccc1 [Example 293, 2-butyl-6-hydroxy-5-[4-(5-methylpyridin-3-yl)benzenesulfonyl]-1-[(1S)-1-phenylpropyl]-1,4-dihydropyrimidin-4-one] | 0.01 to 10 |
| COC[C@@H](c1ccccc1)n1c(COC(C)C)nc(=O)c(S(=O)(=O)c2ccc(Br)c(F)c2)c1O [Example 294, 5-(4-bromo-3-fluorobenzenesulfonyl)-6-hydroxy-1-[(1R)-2-methoxy-1-phenylethyl]-2-[(propan-2-yloxy)methyl]-1,4-dihydropyrimidin-4-one] | 0.01 to 10 |
| CCOCc1nc(=O)c(S(=O)(=O)c2ccc(Br)cc2)c(O)n1[C@H]1CCc2ccccc21 [Example 297, 5-(4-bromobenzenesulfonyl)-1-[(1S)-2,3-dihydro-1H-inden-1-yl]-2-(ethoxymethyl)-6-hydroxy-1,4-dihydropyrimidin-4-one] | 10 to 100 |
| CCOCc1nc(=O)c(S(=O)(=O)c2ccc(Br)c(F)c2)c(O)n1C(COC)c1cccc(F)c1 (centres unmarked) [Example 298, 5-(4-bromo-3-fluorobenzenesulfonyl)-2-(ethoxymethyl)-1-[1-(3-fluorophenyl)-2-methoxyethyl]-6-hydroxy-1,4-dihydropyrimidin-4-one] | 0.01 to 10 |
| CCOCc1nc(=O)c(S(=O)(=O)c2ccc(Br)c(F)c2)c(O)n1[C@@H](COC)c1ccccc1 [Example 300, 5-(4-bromo-3-fluorobenzenesulfonyl)-2-(ethoxymethyl)-6-hydroxy-1-[(1R)-2-methoxy-1-phenylethyl]-1,4-dihydropyrimidin-4-one] | 0.01 to 10 |
| CCOCc1nc(=O)c(S(=O)(=O)c2ccc(Br)c(F)c2)c(O)n1[C@@H](COC)c1cccc(C#N)c1 [Example 301, 3-[(1R)-1-[5-(4-bromo-3-fluorobenzenesulfonyl)-2-(ethoxymethyl)-6-hydroxy-4-oxo-1,4-dihydropyrimidin-1-yl]-2-methoxyethyl] benzonitrile] | 0.01 to 10 |
| CCCCc1nc(=O)c(S(=O)(=O)c2ccc(Br)cc2)c(O)n1[C@@H](CC)c1cccc(C#N)c1 [Example 302, 3-[(1S)-1-[5-(4-bromobenzenesulfonyl)-2-butyl-4-hydroxy-6-oxo-1,6-dihydropyrimidin-1-yl]propyl]benzonitrile] | 0.01 to 10 |
| CCOCc1nc(=O)c(S(=O)(=O)c2ccc(-c3ccncc3C)cc2)c(O)n1[C@@H](CC)c1ccccc1 [Example 306, 2-(ethoxymethyl)-6-hydroxy-5-[4-(3-methylpyridin-4-yl)benzenesulfonyl]-1-[(1S)-1-phenylpropyl]-1,4-dihydropyrimidin-4-one] | 0.01 to 10 |
| CCOCc1nc(=O)c(S(=O)(=O)c2ccc(-c3ccc(F)nc3C)cc2)c(O)n1[C@@H](CC)c1ccccc1 [Example 308, 2-(ethoxymethyl)-5-[4-(6-fluoro-2-methylpyridin-3-yl)benzenesulfonyl]-6-hydroxy-1-[(1S)-1-phenylpropyl]-1,4-dihydropyrimidin-4-one] | 0.01 to 10 |
| CCOCc1nc(=O)c(S(=O)(=O)c2ccc(-c3ccc(OC)nc3C)cc2)c(O)n1[C@@H](CC)c1ccccc1 [Example 309, 2-(ethoxymethyl)-6-hydroxy-5-[4-(6-methoxy-2-methylpyridin-3-yl)benzenesulfonyl]-1-[(1S)-1-phenylpropyl]-1,4-dihydropyrimidin-4-one] | 0.01 to 10 |
| CC[C@@H](c1ccccc1)n1c(COC(C)C)nc(=O)c(S(=O)(=O)c2ccc(-c3ccc(F)nc3C)cc2)c1O [Example 311, 5-[4-(6-fluoro-2-methylpyridin-3-yl)benzenesulfonyl]-6-hydroxy-1-[(1S)-1-phenylpropyl]-2-[(propan-2-yloxy)methyl]-1,4-dihydropyrimidin-4-one] | 0.01 to 10 |
| CC[C@@H](c1ccccc1)n1c(COC(C)C)nc(=O)c(S(=O)(=O)c2ccc(-c3ccnc(F)c3C)cc2)c1O [Example 312, 5-[4-(2-fluoro-3-methylpyridin-4-yl)benzenesulfonyl]-6-hydroxy-1-[(1S)-1-phenylpropyl]-2-[(propan-2-yloxy)methyl]-1,4-dihydropyrimidin-4-one] | 0.01 to 10 |
| CC[C@@H](c1ccccc1)n1c(COC(C)C)nc(=O)c(S(=O)(=O)c2ccc(-c3cccnc3C)cc2)c1O [Example 313, 6-hydroxy-5-[4-(2-methylpyridin-3-yl)benzenesulfonyl]-1-[(1S)-1-phenylpropyl]-2-[(propan-2-yloxy)methyl]-1,4-dihydropyrimidin-4-one] | 0.01 to 10 |
| CC[C@@H](c1ccccc1)n1c(COC(C)C)nc(=O)c(S(=O)(=O)c2ccc(-c3ccncc3C)cc2)c1O [Example 314, 6-hydroxy-5-[4-(3-methylpyridin-4-yl)benzenesulfonyl]-1-[(1S)-1-phenylpropyl]-2-[(propan-2-yloxy)methyl]-1,4-dihydropyrimidin-4-one] | 0.01 to 10 |
| CCOCc1nc(=O)c(S(=O)(=O)c2ccc(-c3ccnc(F)c3C)cc2)c(O)n1[C@@H](COC)c1ccccc1 [Example 316, 2-(ethoxymethyl)-5-[4-(2-fluoro-3-methylpyridin-4-yl)benzenesulfonyl]-6-hydroxy-1-[(1R)-2-methoxy-1-phenylethyl]-1,4-dihydropyrimidin-4-one] | 0.01 to 10 |
| CCOCc1nc(=O)c(S(=O)(=O)c2ccc(-c3ccc(F)nc3)cc2)c(O)n1[C@@H](COC)c1ccccc1 [Example 317, 2-(ethoxymethyl)-5-[4 (6-fluoropyridin-3-yl)benzenesulfonyl]-6-hydroxy-1-[(1R)-2-methoxy-1-phenylethyl]-1,4-dihydropyrimidin-4-one] | 10 to 100 |
| CCOCc1nc(=O)c(S(=O)(=O)c2ccc(-c3ccc(F)nc3C)cc2)c(O)n1[C@@H](COC)c1ccccc1 [Example 318, 2-(ethoxymethyl)-5-[4-(6-fluoro-2-methylpyridin-3-yl)benzenesulfonyl]-6-hydroxy-1-[(1R)-2-methoxy-1-phenylethyl]-1,4-dihydropyrimidin-4-one] | 0.01 to 10 |

Results, then the compound that gave them:

| EC50 [nM] | Structure (SMILES) |
| --- | --- |
| 0.01 to 10 | CCCCc1nc(=O)c(S(=O)(=O)c2ccc(-c3cncc(F)c3)cc2)c(O)n1[C@@H](CC)c1ccccc1 [Example 290, 2-butyl-5-[4-(5-fluoropyridin-3-yl)benzenesulfonyl]-6-hydroxy-1-[(1S)-1-phenylpropyl]-1,4-dihydropyrimidin-4-one] |
| 10 to 100 | COC[C@@H](c1ccccc1)n1c(COC(C)C)nc(=O)c(S(=O)(=O)c2ccc(Br)cc2)c1O [Example 295, 5-(4-bromobenzenesulfonyl)-6-hydroxy-1-[(1R)-2-methoxy-1-phenylethyl]-2-[(propan-2-yloxy)methyl]-1,4-dihydropyrimidin-4-one] |
| 100 to 300 | CCOCc1nc(=O)c(S(=O)(=O)c2ccc(Br)cc2)c(O)n1[C@@H](COC)c1ccccc1 [Example 296, 5-(4-bromobenzenesulfonyl)-2-(ethoxymethyl)-6-hydroxy-1-[(1R)-2-methoxy-1-phenylethyl]-1,4-dihydropyrimidin-4-one] |
| 10 to 100 | CC(C)OCc1nc(=O)c(S(=O)(=O)c2ccc(Br)cc2)c(O)n1[C@H]1CCc2ccccc21 [Example 299, 5-(4-bromobenzenesulfonyl)-1-[(1S)-2,3-dihydro-1H-inden-1-yl]-6-hydroxy-2-[(propan-2-yloxy)methyl]-1,4-dihydropyrimidin-4-one] |
| 0.01 to 10 | CCOCc1nc(=O)c(S(=O)(=O)c2ccc(C3CC3)cc2)c(O)n1[C@H]1CCc2ccccc21 [Example 303, 5-(4-cyclopropylbenzene-sulfonyl)-1-[(1S)-2,3-dihydro-1H-inden-1-yl]-2-(ethoxymethyl)-6-hydroxy-1,4-dihydropyrimidin-4-one] |
| 0.01 to 10 | COC[C@@H](c1ccccc1)n1c(COC(C)C)nc(=O)c(S(=O)(=O)c2ccc(-c3ccc(F)nc3C)c(F)c2)c1O [Example 304, 5-[3-fluoro-4-(6-fluoro-2-methylpyridin-3-yl)benzenesulfonyl]-6-hydroxy-1-[(1R)-2-methoxy-1-phenylethyl]-2-[(propan-2-yloxy)methyl]-1,4-dihydropyrimidin-4-one] |
| 0.01 to 10 | CCOCc1nc(=O)c(S(=O)(=O)c2ccc(-c3ccc(F)nc3)cc2)c(O)n1[C@@H](CC)c1ccccc1 [Example 305, 2-(ethoxymethyl)-5-[4-(6-fluoropyridin-3-yl)benzenesulfonyl]-6-hydroxy-1-[(1S)-1-phenylpropyl]-1,4-dihydropyrimidin-4-one] |
| 0.01 to 10 | CCOCc1nc(=O)c(S(=O)(=O)c2ccc(-c3ccnc(F)c3C)cc2)c(O)n1[C@@H](CC)c1ccccc1 [Example 307, 2-(ethoxymethyl)-5-[4-(2-fluoro-3-methylpyridin-4-yl)benzenesulfonyl]-6-hydroxy-1-[(1S)-1-phenylpropyl]-1,4-dihydropyrimidin-4-one] |
| 0.01 to 10 | CCOCc1nc(=O)c(S(=O)(=O)c2ccc(-c3cccnc3C)cc2)c(O)n1[C@@H](CC)c1ccccc1 [Example 310, 2-(ethoxymethyl)-6-hydroxy-5-[4-(2-methylpyridin-3-yl)benzenesulfonyl]-1-[(1S)-1-phenylpropyl]-1,4-dihydropyrimidin-4-one] |
| 0.01 to 10 | CCOCc1nc(=O)c(S(=O)(=O)c2ccc(-c3ccncc3C)cc2)c(O)n1[C@@H](COC)c1ccccc1 [Example 315, 2-(ethoxymethyl)-6-hydroxy-1-[(1R)-2-methoxy-1-phenylethyl]-5-[4-(3-methylpyridin-4-yl)benzenesulfonyl]-1,4-dihydropyrimidin-4-one] |
